ChEMBL document CHEMBL3751764, “Synthesis and in vitro antiproliferative activity of novel pyrazolo[3,4-d]pyrimidine derivatives” (Medchemcomm, 2015)
Active and inactive are the calls of the source. No cut-off for these calls is given here.

Experiments:
MCF7 = test: Cytotoxicity against human MCF7 cells after 72 hrs by SRB assay; assay type: functional, cell-based; conditions: MCF7, 72 h
[1] = target: T1, Vascular endothelial growth factor receptor 2 (Homo sapiens, UniProt P35968); test: Inhibition of human VEGFR2 at 10 uM after 20 to 40 mins by liquid scintillation counting analysis in presence of […]; set-up: scale not given: the % may be the effect or the level left
T1 sequence (P35968 whole entry): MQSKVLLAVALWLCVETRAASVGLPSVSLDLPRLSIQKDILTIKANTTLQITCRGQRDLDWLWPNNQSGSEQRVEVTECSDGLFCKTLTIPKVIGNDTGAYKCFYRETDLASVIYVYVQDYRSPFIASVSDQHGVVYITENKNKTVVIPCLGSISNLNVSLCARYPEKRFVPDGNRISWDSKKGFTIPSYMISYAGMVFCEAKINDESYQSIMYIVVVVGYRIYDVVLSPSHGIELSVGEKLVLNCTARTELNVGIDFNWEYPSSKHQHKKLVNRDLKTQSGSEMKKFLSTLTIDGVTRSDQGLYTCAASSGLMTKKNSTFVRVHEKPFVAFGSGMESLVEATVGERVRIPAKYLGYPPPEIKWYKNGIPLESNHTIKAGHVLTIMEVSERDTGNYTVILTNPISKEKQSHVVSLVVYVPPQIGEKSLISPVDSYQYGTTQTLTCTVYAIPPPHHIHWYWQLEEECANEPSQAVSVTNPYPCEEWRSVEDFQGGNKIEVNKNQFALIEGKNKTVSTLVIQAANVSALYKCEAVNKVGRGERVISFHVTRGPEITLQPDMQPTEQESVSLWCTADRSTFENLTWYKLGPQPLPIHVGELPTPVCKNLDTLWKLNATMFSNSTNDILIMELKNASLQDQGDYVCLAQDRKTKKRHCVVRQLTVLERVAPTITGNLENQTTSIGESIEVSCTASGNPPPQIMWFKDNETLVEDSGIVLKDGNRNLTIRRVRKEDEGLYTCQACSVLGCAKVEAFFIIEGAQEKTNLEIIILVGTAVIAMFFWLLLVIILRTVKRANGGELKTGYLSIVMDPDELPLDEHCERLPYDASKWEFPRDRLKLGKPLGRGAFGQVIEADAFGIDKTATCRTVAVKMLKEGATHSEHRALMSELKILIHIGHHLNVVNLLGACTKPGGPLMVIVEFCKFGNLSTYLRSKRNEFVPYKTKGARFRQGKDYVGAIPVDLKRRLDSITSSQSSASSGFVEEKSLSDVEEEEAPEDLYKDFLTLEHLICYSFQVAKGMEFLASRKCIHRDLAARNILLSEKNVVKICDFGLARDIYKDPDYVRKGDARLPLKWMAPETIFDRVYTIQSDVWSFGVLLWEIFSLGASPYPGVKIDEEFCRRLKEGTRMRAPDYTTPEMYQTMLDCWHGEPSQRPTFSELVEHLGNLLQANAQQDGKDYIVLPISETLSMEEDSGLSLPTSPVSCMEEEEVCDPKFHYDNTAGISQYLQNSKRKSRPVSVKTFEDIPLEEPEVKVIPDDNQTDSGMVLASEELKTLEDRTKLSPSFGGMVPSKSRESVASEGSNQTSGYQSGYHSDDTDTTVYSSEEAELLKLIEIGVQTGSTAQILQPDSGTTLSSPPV

[2] = Cytotoxicity against human HL60 cells; assay type: functional, cell-based; conditions: HL-60
[3] = target: T1, Vascular endothelial growth factor receptor 2; test: Inhibition of VEGFR2 (unknown origin) using poly(Glu,Ala,Tyr) (6:3:1) as substrate after 20 mins by ELISA
[4] = target: Epidermal growth factor receptor (Homo sapiens) (UniProt P00533); test: Inhibition of human EGFR at 10 uM after 20 to 40 mins by liquid scintillation counting analysis in presence of […]
[5] = target: Aurora kinase A (Homo sapiens) (UniProt O14965); test: Inhibition of human aurora A at 10 uM after 20 to 40 mins by liquid scintillation counting analysis in presence of […]
Sequence of Aurora kinase A (Homo sapiens) (O14965 whole entry): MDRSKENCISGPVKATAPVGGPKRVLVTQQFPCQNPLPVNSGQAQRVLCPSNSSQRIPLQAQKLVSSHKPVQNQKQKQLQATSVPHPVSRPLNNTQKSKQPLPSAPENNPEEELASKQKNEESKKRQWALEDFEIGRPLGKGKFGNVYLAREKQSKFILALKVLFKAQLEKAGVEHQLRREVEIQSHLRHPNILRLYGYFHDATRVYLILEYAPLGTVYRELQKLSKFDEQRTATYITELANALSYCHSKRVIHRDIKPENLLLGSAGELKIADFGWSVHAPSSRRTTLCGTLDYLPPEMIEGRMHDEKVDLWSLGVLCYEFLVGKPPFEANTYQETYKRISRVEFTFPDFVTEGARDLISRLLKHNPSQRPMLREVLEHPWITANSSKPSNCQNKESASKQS

[6] = target: T1, Vascular endothelial growth factor receptor 2; test: Inhibition of VEGFR2 (unknown origin) using poly(Glu:Tyr) as substrate by ELISA-based method
[7] = target: Receptor-type tyrosine-protein kinase FLT3 (Homo sapiens, UniProt P36888); test: Inhibition of Flt3 (unknown origin) using poly(Glu:Tyr) as substrate by ELISA-based method
Sequence of Receptor-type tyrosine-protein kinase FLT3 (P36888 whole entry): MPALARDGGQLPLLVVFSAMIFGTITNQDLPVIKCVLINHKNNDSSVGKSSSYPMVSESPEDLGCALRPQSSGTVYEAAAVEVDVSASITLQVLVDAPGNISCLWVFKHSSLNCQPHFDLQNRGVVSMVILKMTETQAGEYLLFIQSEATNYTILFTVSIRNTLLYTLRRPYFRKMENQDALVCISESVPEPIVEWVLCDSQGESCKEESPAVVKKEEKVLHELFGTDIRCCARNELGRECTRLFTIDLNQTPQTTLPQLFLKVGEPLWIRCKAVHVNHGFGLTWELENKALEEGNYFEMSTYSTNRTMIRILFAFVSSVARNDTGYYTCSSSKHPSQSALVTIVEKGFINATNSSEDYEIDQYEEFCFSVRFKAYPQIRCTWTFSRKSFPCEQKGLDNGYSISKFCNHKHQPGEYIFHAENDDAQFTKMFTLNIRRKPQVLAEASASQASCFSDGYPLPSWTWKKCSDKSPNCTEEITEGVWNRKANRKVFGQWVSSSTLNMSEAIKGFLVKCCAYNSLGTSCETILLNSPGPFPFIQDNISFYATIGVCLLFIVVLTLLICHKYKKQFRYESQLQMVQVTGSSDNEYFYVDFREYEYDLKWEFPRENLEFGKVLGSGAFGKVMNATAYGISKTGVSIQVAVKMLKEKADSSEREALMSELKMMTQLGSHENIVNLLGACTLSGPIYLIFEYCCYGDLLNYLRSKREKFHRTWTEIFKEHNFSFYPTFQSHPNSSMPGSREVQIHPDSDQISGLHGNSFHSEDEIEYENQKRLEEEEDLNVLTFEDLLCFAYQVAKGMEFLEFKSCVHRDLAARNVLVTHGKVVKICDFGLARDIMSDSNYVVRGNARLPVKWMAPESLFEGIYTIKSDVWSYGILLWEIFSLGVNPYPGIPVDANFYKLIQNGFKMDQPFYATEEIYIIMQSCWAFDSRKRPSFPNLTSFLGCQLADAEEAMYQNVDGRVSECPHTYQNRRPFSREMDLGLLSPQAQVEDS

[8] = target: Cyclin-dependent kinase 1 (Homo sapiens, UniProt P06493); test: Inhibition of CDK1 (unknown origin) using […] as substrate after 60 mins by TR-FRET assay
Sequence of Cyclin-dependent kinase 1 (P06493 whole entry): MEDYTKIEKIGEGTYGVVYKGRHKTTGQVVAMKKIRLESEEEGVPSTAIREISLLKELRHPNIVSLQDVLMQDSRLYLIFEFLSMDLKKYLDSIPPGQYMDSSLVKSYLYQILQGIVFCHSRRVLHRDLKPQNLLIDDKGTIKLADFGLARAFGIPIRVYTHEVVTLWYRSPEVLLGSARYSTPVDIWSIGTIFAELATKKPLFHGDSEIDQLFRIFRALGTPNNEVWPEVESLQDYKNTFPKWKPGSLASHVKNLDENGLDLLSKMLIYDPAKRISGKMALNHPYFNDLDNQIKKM

Aurora kinase A = Aurora kinase A (Homo sapiens, UniProt O14965); test: Inhibition of Aurora A (unknown origin) using poly(Glu:Tyr) as substrate by ELISA-based method
Sequence of Aurora kinase A (O14965 whole entry): as the sequence (O14965 whole entry) above

[9] = target: T1, Vascular endothelial growth factor receptor 2; test: Inhibition of VEGFR2 (unknown origin) autophosphorylation after 2 hrs by cell-based assay
[10] = target: Mast/stem cell growth factor receptor Kit (Homo sapiens, UniProt P10721); test: Inhibition of N-terminal GST-tagged recombinant kit (unknown origin) using poly(Glu:Tyr) as substrate by ELISA-based method
Sequence of Mast/stem cell growth factor receptor Kit (P10721 whole entry): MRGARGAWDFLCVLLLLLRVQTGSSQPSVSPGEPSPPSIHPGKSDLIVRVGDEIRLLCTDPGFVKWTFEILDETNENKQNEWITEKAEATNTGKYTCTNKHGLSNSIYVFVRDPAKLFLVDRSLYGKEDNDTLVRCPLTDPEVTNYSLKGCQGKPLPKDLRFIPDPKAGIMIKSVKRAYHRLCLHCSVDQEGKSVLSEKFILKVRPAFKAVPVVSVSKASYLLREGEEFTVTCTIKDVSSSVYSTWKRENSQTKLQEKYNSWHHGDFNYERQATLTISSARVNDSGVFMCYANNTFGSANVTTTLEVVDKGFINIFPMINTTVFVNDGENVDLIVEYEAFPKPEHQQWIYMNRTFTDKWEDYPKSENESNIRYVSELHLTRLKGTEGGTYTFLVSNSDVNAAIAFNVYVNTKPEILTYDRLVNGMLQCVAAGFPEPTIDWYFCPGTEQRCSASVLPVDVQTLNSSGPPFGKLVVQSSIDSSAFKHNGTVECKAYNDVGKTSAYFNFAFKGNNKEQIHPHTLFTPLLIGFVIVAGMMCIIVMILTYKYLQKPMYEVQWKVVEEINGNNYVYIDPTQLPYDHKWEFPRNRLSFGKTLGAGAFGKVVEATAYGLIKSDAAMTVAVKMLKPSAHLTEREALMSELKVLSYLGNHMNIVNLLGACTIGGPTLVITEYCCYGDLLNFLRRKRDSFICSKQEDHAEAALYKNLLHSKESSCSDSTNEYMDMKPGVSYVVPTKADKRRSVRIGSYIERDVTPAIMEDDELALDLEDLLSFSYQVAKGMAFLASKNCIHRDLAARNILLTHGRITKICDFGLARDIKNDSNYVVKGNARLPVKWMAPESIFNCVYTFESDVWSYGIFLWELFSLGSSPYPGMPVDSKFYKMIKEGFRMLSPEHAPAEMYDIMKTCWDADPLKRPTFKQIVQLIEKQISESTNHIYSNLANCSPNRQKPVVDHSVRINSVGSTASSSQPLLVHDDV

Row | Activity [1] [%] | Structure (SMILES) | IC50 (MCF7) [µM] | other results
1 | – | Clc1ccc(COc2ccc(Nc3ncnc4c3cnn4-c3ccc(Cl)cc3)cc2)cc1 | > 100 | –
2 | 2 | O=c1sc2cc(Nc3ncnc4c3cnn4-c3ccccc3)ccc2n1Cc1cccc(Br)c1 | 46.1 | –
3 | – | Cc1cc2nc(Nc3ncnc4c3cnn4-c3ccccc3)sc2cc1C | > 100 | –
4 | 1 | O=C(Nc1ccccc1)Nc1ccc(Oc2ncnc3c2cnn3-c2ccccc2)cc1 | > 100 | –
5 | – | N=c1c2cnn(-c3ccccc3)c2ncn1-c1ccc(-c2ccc(C(F)(F)F)cc2)s1 | – | IC50 [2]: 0.21 µM
6 | -3 | O=C(Nc1ccccc1)Nc1ccc(Oc2ncnc3c2cnn3-c2ccc(Cl)cc2)cc1 | 82.5 | –
7 | 1 | O=c1sc2cc(Nc3ncnc4c3cnn4-c3ccccc3)ccc2n1Cc1ccc(Cl)c(Cl)c1 | 1.6 | –
8 | -5 | O=c1sc2cc(Nc3ncnc4c3cnn4-c3ccccc3)ccc2n1Cc1ccc(Cl)cc1Cl | 44 | –
9 | – | Cc1cc(F)c(Nc2ncnc3cc(OCc4ccccc4)ccc23)cc1O | – | IC50 [3]: < 0.002 µM
10 | 2 | O=C(Nc1cccc(Cl)c1)c1ccc(Nc2ncnc3c2cnn3-c2ccccc2)cc1 | 1.12 | inhibition [4]: inactive
11 | -3 | O=C(Nc1ccc(Nc2ncnc3c2cnn3-c2ccccc2)cc1)Nc1cccc(Cl)c1 | 4.2 | inhibition [5]: inactive
12 | -4 | O=C(NC1CCCCC1)c1ccc(Nc2ncnc3c2cnn3-c2ccc(Cl)cc2)cc1 | > 100 | –
13 | 1 | O=c1sc2cc(Nc3ncnc4c3cnn4-c3ccc(Cl)cc3)ccc2n1Cc1ccc(Cl)cc1Cl | > 100 | –
14 | -5 | O=C(Nc1ccc(Nc2ncnc3c2cnn3-c2ccccc2)cc1)Nc1ccccc1Cl | 55.1 | –
15 | – | O=C(Nc1ccc(Oc2ncnc3[nH]ncc23)cc1)Nc1ccc(Cl)c(C(F)(F)F)c1 | – | IC50 [6]: 2.25 µM; IC50 [7]: 0.004 µM
16 | – | CC(C)n1ncc2cnc(Nc3cc(C(N)=O)n(C)c3)nc21 | – | IC50 [8]: 0.024 µM; IC50 (Aurora kinase A): 0.017 µM
17 | 1 | O=C(Nc1ccc(Nc2ncnc3c2cnn3-c2ccc(Cl)cc2)cc1)Nc1ccccc1Cl | 9.05 | –
18 | -3 | O=C(Nc1ccc(Nc2ncnc3c2cnn3-c2ccccc2)cc1)Nc1cccc(Br)c1 | 36.3 | –
19 | 3 | Cc1ccccc1NC(=O)Nc1ccc(Nc2ncnc3c2cnn3-c2ccc(Cl)cc2)cc1 | 3.15 | –
20 | – | O=C(Nc1ccc(Cl)c(C(F)(F)F)c1)c1ccc(Nc2ncnc3c2cnn3-c2ccc(Cl)cc2)cc1 | 4.92 | –
21 | – | Clc1ccc2nc(Nc3ncnc4c3cnn4-c3ccccc3)sc2c1 | > 100 | –
22 | – | O=C(Nc1ccc(Cl)c(C(F)(F)F)c1)c1ccc(Nc2ncnc3c2cnn3-c2ccccc2)cc1 | 75.9 | –
23 | -8 | O=C(Nc1ccccc1Cl)c1ccc(Nc2ncnc3c2cnn3-c2ccc(Cl)cc2)cc1 | > 100 | –
24 | – | Clc1ccc(COc2ccc(Nc3ncnc4c3cnn4-c3ccccc3)cc2)cc1 | 4.36 | –
25 | – | Clc1ccc(-n2ncc3c(Nc4nc5ccc(Cl)cc5s4)ncnc32)cc1 | 85.6 | –
26 | – | Cc1ccc(C(=O)Nc2cccc(C(F)(F)F)c2)cc1Nc1nc(-c2cccnc2)nc2c1cnn2C | – | EC50 [9]: 4.2 µM
27 | – | O=C(Nc1ccc(OC(F)(F)F)cc1)c1sccc1NCc1ccnc2ccccc12 [OSI-930] | – | IC50 [10]: 0.08 µM
